Laboratory results published in patent publication US7108865B2, “Controlled-release dosage forms of azithromycin” (Pfizer Inc, priority 1994, dated 2006).

Tests used:
[1] = human body; cited from earlier work
[2] = Visual Analogue Scale gastrointestinal side effects after 2 g oral capsule dose, single vs divided (Example 1); type: in vivo, human; parameters: key to Mean Cumulative Score (Visual Analogue Scale), abdominal pain / Mean Cumulative Score (Visual Analogue Scale), nausea / Mean Cumulative Score (Visual Analogue Scale), regurgitation / Mean Cumulative Score (Visual Analogue Scale), abdominal cramping: per-subject sum of 0–10 VAS scores over 240 h, averaged over group; conditions: for Incidence of Visual-Analogue-Scale score >1, abdominal cramping / Incidence of Visual-Analogue-Scale score >1, abdominal pain / Incidence of Visual-Analogue-Scale score >1, nausea / Incidence of Visual-Analogue-Scale score >1, regurgitation / Incidence of Visual-Analogue-Scale score >4, abdominal cramping / Incidence of Visual-Analogue-Scale score >4, abdominal pain / Incidence of Visual-Analogue-Scale score >4, nausea / Incidence of Visual-Analogue-Scale score >4, regurgitation: any time during 240 hr post-dose, #patients reporting score/total # patients; for Mean Cumulative Score (Visual Analogue Scale), abdominal cramping / Mean Cumulative Score (Visual Analogue Scale), abdominal pain / Mean Cumulative Score (Visual Analogue Scale), nausea / Mean Cumulative Score (Visual Analogue Scale), regurgitation: entire 240 hour post-dose period
Description: In a double-blind, randomized, placebo-controlled parallel group study, healthy male subjects were divided into three groups. Group A received a single 2 g azithromycin dose as eight 250 mg azithromycin capsules (“bolus dosing” group). Group B received the same total dose, administered as eight 250 mg capsules at the rate of one 250 mg capsule each 30 minutes for 3.5 hr (“divided dosing” group). Group C received matching placebo capsules. All subjects received eight capsules of drug or placebo at time 0, and a capsule of drug or placebo every half-hour for 3.5 hr. All subjects were dosed after an overnight fast. […] Tmax is the time at which Cmax is achieved.
Prior to dosing and each blood sampling time, each subject filled out a questionnaire, which consisted of a series of “Visual Analogue Scales” in which the subject was required to rate, on a scale of 0–10, the severity of certain potential side effects. The subjects were instructed that “0” indicated an absent effect and “10” indicated the worst possible effect. The subjects were instructed to interpolate between 0 and 10 for moderate side effects.
Analysis of side effect visual-analogue-scale data was carried out in two formats. In the first format (Table II), the analysis concentrated on the general incidence of side effects of a particular type. For each side effect type (e.g., abdominal pain), Table II reports the number of subjects who reported a score >1 at any time during the 240 hr post-dosing, and the number of subjects who reported a score >4 at any time during the 240 hr post-dosing. This analysis assumes that all scores >1 represent a real side effect occurrence, however mild or severe. A score >4 is presumed to reflect a moderate-to-severe side effect occurrence.
In the second format (Table III), the analysis reflects the general severity and duration of side effects. For a particular side effect (e.g., Abdominal Pain) in a particular subject, all visual-analogue-scale scores (over the 240 hr post-dose period) were summed to give a “cumulative score” over the entire time period of evaluation. “Cumulative scores” for all members of a treatment group were summed, and divided by the number of subjects in the group, to give a Mean Cumulative Score. […] Table III presents Mean Cumulative Scores for abdominal pain, nausea, regurgitation, and abdominal cramping.

[3] = Serum azithromycin pharmacokinetics after 2 hr intravenous infusion (Example 3); type: in vivo; conditions: male, human, 2 hr infusion
Description: Healthy male subjects were divided into four groups. Group A received a 2 hr intravenous infusion of a placebo solution (0 g azithromycin). Group B received a 2 hr intravenous infusion of a 1 g dose of azithromycin. Group C received a 2 hr intravenous infusion of a 2 g dose of azithromycin. Group D received a 2 hr intravenous infusion of a 4 g dose of azithromycin. […] All subjects were dosed after an overnight fast.
Tmax is the time at which Cmax is achieved.

[4] = cited from earlier work
[5] = 250 mg per half-hr for 3.5 hr (2 g total), oral
[6] = 250 mg/half-hr for 3.5 hr (2 g total), oral

CC[C@H]1OC(=O)[C@H](C)[C@@H](O[C@H]2C[C@@](C)(OC)[C@@H](O)[C@H](C)O2)[C@H](C)[C@@H](O[C@@H]2O[C@H](C)C[C@H](N(C)C)[C@H]2O)[C@](C)(O)C[C@@H](C)CN(C)[C@H](C)[C@@H](O)[C@]1(C)O [azithromycin, 9a-aza-9a-methyl-9-deoxo-9a-homoerythromycin A]
elimination half-life [1]: about 69 hours | Incidence of Visual-Analogue-Scale score >1, abdominal cramping [2, 5]: 4/14 | Incidence of Visual-Analogue-Scale score >1, abdominal pain [2, 5]: 6/14 | Incidence of Visual-Analogue-Scale score >1, nausea [2, 5]: 3/14 | Incidence of Visual-Analogue-Scale score >1, regurgitation [2, 5]: 0/14 | Incidence of Visual-Analogue-Scale score >4, abdominal cramping [2, 5]: 0/14 | Incidence of Visual-Analogue-Scale score >4, abdominal pain [2, 5]: 1/14 | Incidence of Visual-Analogue-Scale score >4, nausea [2, 5]: 0/14 | Incidence of Visual-Analogue-Scale score >4, regurgitation [2, 5]: 0/14 | Mean Cumulative Score (Visual Analogue Scale), abdominal cramping [2, 6]: 4.46 | Mean Cumulative Score (Visual Analogue Scale), abdominal pain [2, 6]: 6.31 | Mean Cumulative Score (Visual Analogue Scale), nausea [2, 6]: 2.77 | Mean Cumulative Score (Visual Analogue Scale), regurgitation [2, 6]: 1.38 | Incidence of Visual-Analogue-Scale score >1, abdominal cramping ([2]; 2 g single oral dose): 6/15 | Incidence of Visual-Analogue-Scale score >1, abdominal pain ([2]; 2 g single oral dose): 6/15 | Incidence of Visual-Analogue-Scale score >1, nausea ([2]; 2 g single oral dose): 2/15 | Incidence of Visual-Analogue-Scale score >1, regurgitation ([2]; 2 g single oral dose): 0/15 | Incidence of Visual-Analogue-Scale score >4, abdominal cramping ([2]; 2 g single oral dose): 1/15 | Incidence of Visual-Analogue-Scale score >4, abdominal pain ([2]; 2 g single oral dose): 2/15 | Incidence of Visual-Analogue-Scale score >4, nausea ([2]; 2 g single oral dose): 1/15 | Incidence of Visual-Analogue-Scale score >4, regurgitation ([2]; 2 g single oral dose): 0/15 | Mean Cumulative Score (Visual Analogue Scale), abdominal cramping ([2]; 2 g single oral dose): 4.67 | Mean Cumulative Score (Visual Analogue Scale), abdominal pain ([2]; 2 g single oral dose): 6.4 | Mean Cumulative Score (Visual Analogue Scale), nausea ([2]; 2 g single oral dose): 1.93 | Mean Cumulative Score (Visual Analogue Scale), regurgitation ([2]; 2 g single oral dose): 0.53 | AUC(0-inf) ([3]; 1.0 g total IV dose, n = 6): 23400 ng·h/mL | Cmax ([3]; 1.0 g total IV dose, n = 6): 3110 ng/mL | Tmax ([3]; 1.0 g total IV dose, n = 6): 1.9 h | AUC(0-inf) ([3]; 2.0 g total IV dose, n = 6): 45600 ng·h/mL | Cmax ([3]; 2.0 g total IV dose, n = 6): 6840 ng/mL | Tmax ([3]; 2.0 g total IV dose, n = 6): 1.8 h | AUC(0-inf) ([3]; 4.0 g total IV dose, n = 5): 82100 ng·h/mL | Cmax ([3]; 4.0 g total IV dose, n = 5): 9910 ng/mL | Tmax ([3]; 4.0 g total IV dose, n = 5): 1.1 h | oral bioavailability of an azithromycin capsule ([4]; typical value): about 38% | oral bioavailability ([4]; used to convert intravenous to equivalent oral doses): 37%
